# Laboratory results taken from ChEMBL document CHEMBL1201862, “PubChem BioAssay data set” (2004).
#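 1) Cells in 96-well plates. 2) Compound, 48 h, 5 concentrations. 3) Linear interpolation between surrounding doses. 4) Unreached endpoint = highest concentration. At the GI50, growth is halved.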 Active and inactive are the calls of the source. No stated cut-off is given here; in the data, active = GI50 up to about 1.1 µM and inactive = higher.
# How the values were obtained:
# Assay in all cases: NCI tumour cell line growth inhibition, 48 h
# [1] = tested on: 786-0
# [2] = tested on: CCRF-CEM
# [3] = tested on: COLO 205
# [4] = tested on: DU-145
# [5] = tested on: IGROV-1
# [6] = tested on: K562
# [7] = tested on: M14
# [8] = tested on: MDA-MB-435
# [9] = tested on: NCI-H522
# [10] = tested on: NCI/ADR-RES
# [11] = tested on: OVCAR-4
# [12] = tested on: OVCAR-5
# [13] = tested on: OVCAR-8
# [14] = tested on: PC-3
# [15] = tested on: RPMI-8226
# [16] = tested on: SF-268
# [17] = tested on: SK-MEL-28
# [18] = tested on: SK-MEL-2
# [19] = tested on: SNB-19
# [20] = tested on: SW-620
SMILES,GI50 [1],GI50 [2],GI50 [3],GI50 [4],GI50 [5],GI50 [6],GI50 [7],GI50 [8],GI50 [9],GI50 [10],GI50 [11],GI50 [12],GI50 [13],GI50 [14],GI50 [15],GI50 [16],GI50 [17],GI50 [18],GI50 [19],GI50 [20]
C[C@@H](NC(=O)OC1C=CC2(CC1)C(=O)N(C)c1ccccc12)c1cccc2ccccc12 (stereo not given in full),> 25 µM (inactive),14.7 µM (inactive),15.1 µM (inactive),> 25 µM (inactive),4.86 µM (inactive),15.1 µM (inactive),14.4 µM (inactive),9.57 µM (inactive),5.24 µM (inactive),11.7 µM (inactive),16.3 µM (inactive),> 25 µM (inactive),> 25 µM (inactive),> 25 µM (inactive),8.79 µM (inactive),7.36 µM (inactive),> 25 µM (inactive),> 25 µM (inactive),> 25 µM (inactive),> 25 µM (inactive)
c1ccc(-c2cc(C3CO3)c3ccccc3n2)cc1 (stereo not given),15.5 µM (inactive),29.6 µM (inactive),19.7 µM (inactive),16.9 µM (inactive),17.9 µM (inactive),34.4 µM (inactive),18.9 µM (inactive),18.9 µM (inactive),3.99 µM (inactive),24.3 µM (inactive),21.5 µM (inactive),22 µM (inactive),20 µM (inactive),19.5 µM (inactive),21.9 µM (inactive),20 µM (inactive),38.5 µM (inactive),18.4 µM (inactive),29.1 µM (inactive),27.9 µM (inactive)
C=CCN1C(=O)/C(=C/c2ccco2)N=C1SC/C=C/C,28.2 µM (inactive),45.9 µM (inactive),36 µM (inactive),> 100 µM (inactive),51.2 µM (inactive),32.4 µM (inactive),64.1 µM (inactive),31.8 µM (inactive),34 µM (inactive),37.1 µM (inactive),60.5 µM (inactive),> 100 µM (inactive),24.1 µM (inactive),39 µM (inactive),28 µM (inactive),49.2 µM (inactive),46.1 µM (inactive),29.4 µM (inactive),71.3 µM (inactive),43.9 µM (inactive)
COc1cc(/C=C/C=C2\CC/C(=C\C=C\c3ccc(O)c(OC)c3)C2=O)ccc1O,> 100 µM (inactive),0.305 µM (active),> 100 µM (inactive),> 100 µM (inactive),> 100 µM (inactive),15.2 µM (inactive),> 100 µM (inactive),> 52.4 µM (inactive),1.45 µM (inactive),> 100 µM (inactive),> 60.1 µM (inactive),> 100 µM (inactive),> 100 µM (inactive),> 100 µM (inactive),57.3 µM (inactive),> 100 µM (inactive),> 100 µM (inactive),> 100 µM (inactive),> 100 µM (inactive),> 100 µM (inactive)
O=C1/C(=C/c2cccc(Br)c2)CCc2ccccc21,16.3 µM (inactive),3.26 µM (inactive),20.8 µM (inactive),17.2 µM (inactive),11.4 µM (inactive),6.65 µM (inactive),15.8 µM (inactive),12.4 µM (inactive),10.6 µM (inactive),14 µM (inactive),13.1 µM (inactive),14.9 µM (inactive),16.1 µM (inactive),14.2 µM (inactive),2.99 µM (inactive),6.76 µM (inactive),18.4 µM (inactive),12.9 µM (inactive),14.7 µM (inactive),5.51 µM (inactive)
NP(=O)(Oc1c2occc2cc2ccc(=O)oc12)N(CCCl)CCCl (stereo not given),> 100 µM (inactive),45.2 µM (inactive),> 100 µM (inactive),> 100 µM (inactive),> 100 µM (inactive),> 100 µM (inactive),> 100 µM (inactive),> 100 µM (inactive),> 100 µM (inactive),> 100 µM (inactive),> 100 µM (inactive),> 100 µM (inactive),73.6 µM (inactive),> 100 µM (inactive),89.7 µM (inactive),58.2 µM (inactive),> 100 µM (inactive),> 100 µM (inactive),> 100 µM (inactive),> 100 µM (inactive)
COC(=O)CNC(=O)CCC(C)[C@H]1CCC2C3C(C[C@H](OC(C)=O)[C@@]21C)[C@@]1(C)CCC2(C[C@H]1C[C@H]3OC(C)=O)OOC1(CC[C@]3(C)C4C[C@H](OC(C)=O)[C@@]5(C)C(CC[C@@H]5C(C)CCC(=O)NCC(=O)OC)C4[C@H](OC(C)=O)C[C@@H]3C1)OO2 (stereo not given in full),0.76 µM (active),0.244 µM (active),0.875 µM (active),0.933 µM (active),0.836 µM (active),1.38 µM (inactive),1.37 µM (inactive),2.3 µM (inactive),0.991 µM (active),8.75 µM (inactive),4.9 µM (inactive),2.03 µM (inactive),0.746 µM (active),1.64 µM (inactive),0.309 µM (active),2.19 µM (inactive),1.61 µM (inactive),0.764 µM (active),37.2 µM (inactive),1.71 µM (inactive)
